Oc1ccc(CSSCc2ccc(O)cc2)cc1 gave a melting point of 171 °C.
Work on COc1cc(NC(C)=O)ccc1OCC(O)CN1CCN(c2ccccc2F)CC1 (stereo unspecified) yielded a melting point of 144 °C.
For CSCC1=C(c2ccccc2)C(=O)N(C(C)(C)C(=O)O)CO1, the melting point was 136 to 137 °C.
In the case of CN(NC(=O)OC(C)(C)C)C(=O)C(C)(C)ON1C(=O)c2ccccc2C1=O, the melting point is reported as 140 to 145 °C.
C=CCN(CC=C)c1nc(NC(=O)c2ccc(Cl)cc2)n2oc(=O)nc2n1 gave a melting point of 192 to 194 °C.
With O=C(O)Cc1coc2cc(OCc3cc(-c4ccc(C(F)(F)F)cc4)on3)ccc12 the melting point was 201 °C.
With N#Cc1ccc(N(CCCCOc2ccc(O)cc2)n2cnnc2)cc1 the melting point was 156 to 159 °C.
With CCC(=O)Nc1cccc(-c2ccc(Cl)nn2)c1 the melting point was 184 to 187 °C.
CN1CCCCC1C(=O)NN=Cc1cc(Cl)cc(Cl)c1O (stereo unspecified) gave a melting point of 107 to 110 °C.
Compound CCCCOc1ccc(C(=O)c2ccc(OCCBr)cc2)cc1 has a melting point of 107 to 108 °C.
CCN(CC)C(=O)Cc1c(N)n[nH]c1-c1ccc(OC)cc1 showed a melting point of 154 to 158 °C.
With O=C(Nc1ccc2ccc(Cl)nc2n1)c1ccc(Br)o1 the melting point was 285 °C.
Work on COC(=O)c1ccn2c1C(C(=O)OC)CC2 (stereo unspecified) yielded a melting point of 70 to 71 °C.
In the case of CC(=O)NC[C@H]1CN(c2ccc(N3CCN(C(=O)CCC(=O)c4ccc(Cl)cc4)CC3)c(F)c2)C(=O)O1, the melting point is reported as 208 to 209 °C.
For CCCCSN(C)C(=O)Nc1ccc(Cl)c(Cl)c1, the melting point was 47 °C.
CCOC(=O)C1Cc2cc(Cl)ccc2NC1=O (stereo unspecified) gave a melting point of 173 to 175 °C.
CCOC(COC1CC2C3CCC4=CC(=O)C=CC4(C)C3(F)C(O)CC2(C)C1(O)C(=O)CCl)OCC (stereo unspecified) showed a melting point of 200 to 202 °C.
Compound Cc1ccc(C(=O)Nc2c(NC(=O)CN3CCOCC3)ccc3c2C(=O)c2ccccc2C3=O)cc1 has a melting point of 225 to 226 °C.
For OC(c1cccc(-c2cc3ccccc3[nH]2)c1)c1cc2ccccc2[nH]1 (stereo unspecified), the melting point was 82 to 85 °C.
Work on O=C1NCCc2ccc(OCCCCN3CCN(c4cccc5c4OCCCO5)CC3)nc2N1 yielded a melting point of 78 to 79 °C.
In the case of O=C1CC(c2c(-c3ccc[nH]3)[nH]c3ccc(Cl)cc23)C(=O)N1 (stereo unspecified), the melting point is reported as 138 to 144 °C.
For CC(=O)ONC(=N)c1ccc(-c2ccc(-c3ccc(C(=N)NOC(C)=O)nc3)o2)cc1, the melting point was 266 to 268 °C.
In the case of CNC(=NC(=O)NC1CCCCC1)N(C)C, the melting point is reported as 121 to 124 °C.
For C#CCN(Cc1ccc2nc[nH]c(=O)c2c1)c1ccc(C(=O)NCc2cccc([N+](=O)[O-])c2)cc1, the melting point was 93 to 96 °C.
For N#CC(=C(Cl)c1ccc(Br)cc1)c1ccccc1, the melting point was 128 to 130 °C.
For COC(=O)c1ccc2c(c1)Sc1ccccc1N=C2N1CCOCC1, the melting point was 114 to 115 °C.
For CCCC(=O)c1ccc(OCCCCCC(=O)O)c(Cl)c1Cl, the melting point was 94 to 95 °C.
With N#Cc1ccccc1-c1ccc2[nH]c(CCl)nc2c1 the melting point was 150 to 158 °C.
Cc1ccc(-c2csc(-c3cccc(C(=O)O)c3)n2)cc1C gave a melting point of 235 to 236 °C.
COc1ccc(/C=C/C#N)cc1OC gave a melting point of 93 to 98 °C.
For CCCCC1N=c2ccc(OCC)c(C(=O)OCC)c2=NC1=O (stereo unspecified), the melting point was 168 to 169 °C.
For Nc1cc(F)c(NCC(O)CO)cc1[N+](=O)[O-] (stereo unspecified), the melting point was 129 to 130 °C.
For COC(=O)[C@H](Cc1ccccc1)Oc1c(C)cc(-c2c3ccccc3c(Br)c3sc(C)c(C)c23)cc1C, the melting point was 134 to 139 °C.
COc1cc(Cl)c(CCNCC(O)c2ccccc2)cc1OC (stereo unspecified) showed a melting point of 110 to 113 °C.
In the case of Cc1ccc(OCCN2CCN(c3nc(N)nc(-c4cc(Cl)ccc4Cl)n3)CC2)cc1, the melting point is reported as 140 to 141 °C.
C=C(C)Cc1c(O)cc(C(C)(C)C)c(OC(C)=O)c1C(C)(C)C gave a melting point of 102 °C.
In the case of O=C(Nc1ccc2nc(CN3CCN=C3Cc3ccccc3)ccc2c1)c1ccc(-c2ccc(F)cc2)cc1, the melting point is reported as 200 to 202 °C.
For CCNC(=O)C1Cc2c(n(C)c3ccc(OC)cc23)C1 (stereo unspecified), the melting point was 162 to 163 °C.
Compound CC(=O)Nc1ccc(C(=O)NC(C)(C)C)cc1 has a melting point of 119 to 121 °C.
For CCCCNc1c2c(nc3c1cnn3CC)CCc1ccccc1C2=O, the melting point was 91 to 93 °C.
For N=C(NO)c1cnn2c(C(F)(F)F)cc(-c3ccc(C(F)(F)F)cc3)nc12, the melting point was 252 °C.
In the case of O=S(=O)(O)c1ccc2nc(NC3=NCCN3)[nH]c2c1, the melting point is reported as > 360 °C.
For COc1ccc(NC(=O)c2ccc(-c3ccc(C(=O)N4CCCC4)cc3C)cc2)cc1N1CCN(C)CC1, the melting point was 187 to 188 °C.
With CC(Oc1ncn(-c2ccc(Cl)cc2)n1)C(=O)O (stereo unspecified) the melting point was 196 to 198 °C.
CCCCCCCCCCC1(C)OCC(C=Cc2ccc(-c3ccccc3)cc2)OO1 (stereo unspecified) showed a melting point of 86 to 90 °C.
In the case of O=C1SCCN1Cc1ccc(Cl)cc1, the melting point is reported as 68 to 69 °C.
CC1Nc2cc(-c3ccc(Cl)cc3)ccc2NC1=O (stereo unspecified) gave a melting point of 228 to 230 °C.
With O=C(Nc1nc2n(n1)Cc1ccccc1-2)c1ccccc1 the melting point was 220 to 221 °C.
In the case of O=CNC(=O)N1CC(Oc2cccc(C(F)(F)F)c2)C1, the melting point is reported as 118 to 119 °C.
In the case of CCn1cc(S(=O)(=O)NC(=O)c2cn3cc(C(F)(F)F)cc(Cl)c3n2)c(Cl)n1, the melting point is reported as 184 to 185 °C.
With CCCCCCC(Oc1ccc(C2=CCCCC2)cc1)C(=O)O (stereo unspecified) the melting point was 70 to 71 °C.
